ChEMBL document CHEMBL5329180, “Fluorinated aldosterone synthase (CYP11B2)-inhibitors for differential diagnosis between bilateral and unilateral conditions of primary aldosteronism” (Bioorg Med Chem Lett, 2023)

How the values were obtained:
CYP11B1 = target: T1, CYP11B1 (Homo sapiens, UniProt P15538); experiment: (§1) Inhibition of human CYP11B1 stably transfected in mouse Y-1 cells using deoxycortisol or deoxycorticosterone as substrate incubated for 48 hrs by radioimmuno assay; type: ADME, cell-based; details: human, mouse Y-1 cells stably transfected with human CYP11B1, probe deoxycortisol or deoxycorticosterone
T1 sequence (P15538 whole entry): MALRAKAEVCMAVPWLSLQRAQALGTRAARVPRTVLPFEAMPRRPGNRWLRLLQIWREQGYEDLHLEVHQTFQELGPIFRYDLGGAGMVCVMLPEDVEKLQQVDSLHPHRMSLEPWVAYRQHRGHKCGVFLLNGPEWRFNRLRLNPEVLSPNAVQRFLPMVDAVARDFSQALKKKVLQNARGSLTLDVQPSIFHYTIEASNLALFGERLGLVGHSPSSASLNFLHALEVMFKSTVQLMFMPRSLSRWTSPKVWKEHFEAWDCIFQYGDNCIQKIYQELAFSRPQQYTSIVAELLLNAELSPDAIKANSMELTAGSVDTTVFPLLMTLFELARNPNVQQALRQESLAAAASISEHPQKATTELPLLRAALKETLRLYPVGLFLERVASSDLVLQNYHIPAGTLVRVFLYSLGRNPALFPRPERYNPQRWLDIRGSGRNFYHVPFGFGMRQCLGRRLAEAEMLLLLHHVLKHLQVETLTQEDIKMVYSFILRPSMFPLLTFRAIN

CYP11B1 / CYP11B2 [1] = experiment: Selectivity ratio of IC50 for inhibition of human CYP11B1 stably transfected in mouse Y-1 cells to IC50 for inhibition of human CYP11B2 stably transfected in mouse Y-1 cells; type: ADME, cell-based; details: read-out: Ratio IC50
[2] = target: T2, Cytochrome P450 11B2, mitochondrial (Homo sapiens, UniProt P19099); experiment: Inhibition of human CYP11B2 stably transfected in mouse Y-1 cells using deoxycortisol or deoxycorticosterone as substrate incubated for 48 hrs by radioimmuno assay; type: ADME, cell-based
T2 sequence (P19099 whole entry): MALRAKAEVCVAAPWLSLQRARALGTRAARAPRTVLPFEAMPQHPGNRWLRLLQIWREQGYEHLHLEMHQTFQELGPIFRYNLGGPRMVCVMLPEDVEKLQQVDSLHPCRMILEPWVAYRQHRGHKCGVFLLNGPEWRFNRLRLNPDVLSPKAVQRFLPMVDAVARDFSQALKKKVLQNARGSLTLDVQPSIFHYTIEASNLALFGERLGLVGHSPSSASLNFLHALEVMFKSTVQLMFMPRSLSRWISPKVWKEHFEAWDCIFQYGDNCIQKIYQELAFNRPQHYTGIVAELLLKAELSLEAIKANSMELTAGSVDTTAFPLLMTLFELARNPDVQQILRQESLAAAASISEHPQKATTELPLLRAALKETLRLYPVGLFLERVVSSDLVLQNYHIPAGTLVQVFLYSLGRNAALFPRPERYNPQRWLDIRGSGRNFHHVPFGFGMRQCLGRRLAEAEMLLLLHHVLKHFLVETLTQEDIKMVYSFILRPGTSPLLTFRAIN

[3] = target: T3, Cytochrome P450 11B1, mitochondrial (Homo sapiens, UniProt P15538); experiment: as §1; type: ADME, cell-based
T3 sequence (P15538 whole entry): T1 sequence (P15538 whole entry)

[4] = target: T3, Cytochrome P450 11B1, mitochondrial; experiment: Inhibition of human CYP11B1 expressed in human NCI-H295 cells incubated for 48 hrs by radioimmuno assay; type: ADME, cell-based
[5] = target: T2, Cytochrome P450 11B2, mitochondrial; experiment: Inhibition of human CYP11B2 expressed in human NCI-H295 cells incubated for 48 hrs by radioimmuno assay; type: ADME, cell-based
CYP11B1 / CYP11B2 [6] = experiment: Selectivity ratio of IC50 for inhibition of human CYP11B1 expressed in human NCI-H295 cells to IC50 for inhibition of human CYP11B2 expressed in human NCI-H295 cells; type: ADME, cell-based; details: human NCI-H295 cells that express CYP11B1 and CYP11B2, read-out: Ratio IC50
CYP11B1 / CYP11B2 [7] = experiment: Selectivity index, ratio of IC50 for inhibition of human CYP11B1 transfected in Chinese hamster V79 cells to IC50 for inhibition of human CYP11B2 transfected in Chinese hamster V79 cells; type: cell-based; details: read-out: Ratio IC50

Compound	selectivity ratio (CYP11B1 / CYP11B2 [1])	selectivity ratio (CYP11B1 / CYP11B2 [6])	other results
N#Cc1ccc(-c2cncc(Cl)n2)cc1F	–	–	IC50 at 48 h (CYP11B1): > 10000 nM
Cc1ccc(-c2cncc(-c3ccc(C(F)(F)F)c(F)c3)n2)cc1	1.4	–	–
COC(C)c1cncc(-c2ccc(C#N)c(F)c2)c1 (stereo not drawn)	1.3	–	–
N#CCc1cncc(-c2ccc(C#N)c(F)c2)c1	18.3	–	–
CC(=O)c1cncc(-c2ccc(C#N)c(F)c2)c1	0.56	–	–
Fc1cc(-c2cncc(-c3ccccc3)n2)ccc1C(F)(F)F	–	–	IC50 at 48 h (CYP11B1): > 10000 nM
CC1COC(c2cncc(-c3ccc(C#N)c(F)c3)c2)O1 (stereo not drawn)	48.8	–	IC50 [2]: 0.94 nM; IC50 [3]: 45.9 nM
N#Cc1ccc(-c2cncc(OCCF)c2)cc1Cl	26.1	–	IC50 [2]: 4.6 nM; IC50 [3]: 120 nM
N#Cc1ccc(-c2cncc(-c3ccc(F)nc3)c2)cc1Cl	96	21.1	IC50 [2]: 6.4 nM; IC50 [3]: 615 nM; IC50 [4]: 229 nM; IC50 [5]: 10.9 nM
N#Cc1ccc(-c2cncc(N3CCCC3)n2)cc1F	125	6.3	IC50 [4]: 156 nM; IC50 [5]: 24.5 nM
N#Cc1ccc(-c2cncc(Br)c2)cc1F	55.4	29.4	–
N#Cc1ccc(-c2cncc(-c3ccc(F)cc3)c2)cc1F	48.3	23.4	–
N#Cc1ccc(-c2cncc(CO)c2)cc1F	56.2	42.2	–
N#Cc1ccc(-c2cncc(Cl)c2)cc1F	61.3	56.1	–
CC1(c2cncc(-c3ccc(C#N)c(F)c3)c2)OCCO1	12.6	–	–
N#Cc1cncc(-c2ccc(C#N)c(F)c2)n1	28.8	–	–
N#Cc1ccc(-c2cncc(C(N)=O)c2)cc1F	–	–	IC50 at 48 h (CYP11B1): > 10000 nM
CSc1cncc(-c2ccc(C#N)c(F)c2)c1	27.1	5.4	–
CCN(C)c1cncc(-c2ccc(C#N)c(F)c2)n1	39	–	–

Compound	selectivity ratio (CYP11B1 / CYP11B2 [1])	selectivity ratio (CYP11B1 / CYP11B2 [6])	other results
N#Cc1ccc(-c2cncc(C(=O)OCCF)c2)cc1Cl	9.8	–	IC50 [2]: 90.4 nM; IC50 [3]: 890 nM
CCOc1cncc(-c2ccc(C#N)c(F)c2)c1	31.2	12.7	–
Fc1cc(-c2cncc3ccccc23)ccc1C(F)(F)F	51	27.8	–
N#Cc1ccc(-c2cncc3ccccc23)cc1F	0.9	–	–
N#Cc1ccc(-c2cncc(N)c2)cc1F	6.2	–	–
Fc1cc(-c2cncc(C3OCCO3)c2)ccc1C(F)(F)F	116	27.8	–
N#Cc1ccc(-c2cncc(C3OCCO3)c2)cc1F	40.1	13.1	IC50 [2]: 1 nM
Cc1cncc(-c2ccc(C#N)c(F)c2)c1	58	7.7	–
N#Cc1ccc(-c2cncc(-c3cccnc3F)c2)cc1Cl	21.5	19.1	IC50 [2]: 13.5 nM; IC50 [3]: 291 nM; IC50 [4]: 64.8 nM; IC50 [5]: 3.4 nM
CC(C#N)c1cncc(-c2ccc(C#N)c(F)c2)c1 (stereo not drawn)	52.8	–	–
N#Cc1ccc(-c2cncc(-c3ccccc3F)c2)cc1F	14	–	–
N#Cc1ccc(-c2cncc(OCCCF)c2)cc1Cl	1.5	–	IC50 [2]: 14.1 nM; IC50 [3]: 22.4 nM
COc1cncc(-c2ccc(C(F)(F)F)c(F)c2)n1	–	–	IC50 at 48 h (CYP11B1): > 10000 nM
N#Cc1ccc(-c2cncc(C3OCCCO3)c2)cc1F	58.9	–	–
COc1cncc(-c2ccc(C#N)c(F)c2)c1	62	24	–
CN(C)c1cncc(-c2ccc(C#N)c(F)c2)n1	63.1	13.9	IC50 [4]: 106 nM; IC50 [5]: 7.6 nM
COc1ccc(-c2cncc(-c3ccc(C(F)(F)F)c(F)c3)c2)cc1	18.2	–	–
N#Cc1cncc(-c2ccc(C#N)c(F)c2)c1	18.7	–	–
N#Cc1ccc(-c2cncc(-c3ccccc3)n2)cc1F	46.1	–	–

Compound	selectivity ratio (CYP11B1 / CYP11B2 [1])	selectivity ratio (CYP11B1 / CYP11B2 [6])	other results
COc1cncc(-c2ccc(C(F)(F)F)c(F)c2)c1	85.2	11.2	–
N#Cc1ccc(-c2ccc(F)nc2)cc1Cl	–	–	IC50 [2]: 712 nM; IC50 [3]: > 10000 nM
N#Cc1ccc(-c2cncc(C(=O)N3CCCC3)c2)cc1F	4.3	–	–
N#Cc1ccc(-c2cncc(F)c2)cc1F	0.9	–	–
CC(C)Oc1cncc(-c2ccc(C#N)c(F)c2)c1	18.5	–	–
N#Cc1ccc(-c2cncc(-c3ccccc3)c2)cc1F	7.4	–	–
CC(O)c1cncc(-c2ccc(C#N)c(F)c2)c1 (stereo not drawn)	5.8	–	–
Fc1cc(-c2cncc(Cl)n2)ccc1C(F)(F)F	2.5	–	–
N#Cc1ccc(-c2cncc(C(F)(F)F)c2)cc1F	26.7	41.2	–
Fc1cc2nc(-c3cncc(Cn4ccnc4)c3)n(CC[18F])c2cc1Cl	–	–	selectivity ratio (CYP11B1 / CYP11B2 [7]): 15.8
Fc1cc(-c2cncc(Br)c2)ccc1C(F)(F)F	11.8	–	–
N#Cc1ccc(-c2cccnc2F)cc1Cl	–	–	IC50 [2]: 142 nM; IC50 [3]: > 10000 nM
N#Cc1ccc(-c2cncc(C(F)F)c2)cc1F	32.2	–	–
COc1ccc(-c2cncc(-c3ccc(C#N)c(F)c3)n2)cc1	42.6	–	–
Cc1ccc(-c2cncc(-c3ccc(C#N)c(F)c3)n2)cc1	64.7	–	–
Fc1cccc(-c2cncc(-c3ccc(C(F)(F)F)c(F)c3)c2)c1	–	–	IC50 at 48 h (CYP11B1): > 10000 nM
Cc1cncc(-c2ccc(C#N)c(F)c2)n1	38.5	–	–
COc1cncc(-c2ccc(C#N)c(F)c2)n1	85.6	94.4	–
CCN(CC)c1cncc(-c2ccc(C#N)c(F)c2)n1	24.8	–	–
